Consider 6 molecules from ChEMBL document CHEMBL1201862, “PubChem BioAssay data set” (2004).

Assay [1] deals with BJ. As to the kind of experiment: cytotoxicity toward BJ-TERT-LT-ST fibroblasts, dose response, cell-based, RAS-independent, luminescence (AID 1935).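 Further: BJ fibroblasts immortalized with TERT plus LT and ST oncogenes.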 It is filed as functional. The conditions noted are these: Homo sapiens.
The subject of assay [2] is BJ. As to the kind of experiment: cytotoxicity toward BJ-TERT fibroblasts, dose response, cell-based, RAS-independent, luminescence (AID 1933). It is filed as functional. The conditions noted are these: Homo sapiens.
Assay [3] addresses Cell division cycle 7-related protein kinase (Homo sapiens, UniProt O00311). The class given is functional.
Assay [4] has as its target Tyrosine-protein kinase SYK (Homo sapiens, UniProt P43405). It is filed as functional.
Assay [5] addresses Maternal embryonic leucine zipper kinase (Homo sapiens, UniProt Q14680). It is filed as functional.
Assay [6] deals with Cyclin-dependent kinase 2 (Homo sapiens, UniProt P24941). It is filed as functional.
Assay [7] addresses Serine/threonine-protein kinase 17A (Homo sapiens, UniProt Q9UEE5). The class given is functional.
Assay [8] addresses Tyrosine-protein kinase ABL1 (Homo sapiens, UniProt P00519). It is filed as functional.
The target in assay [9] is Mitogen-activated protein kinase 14 (Homo sapiens, UniProt Q16539). It is filed as functional.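 Further: part of a kinome-wide panel, MAPK14 entry.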
Sequence of Mitogen-activated protein kinase 14 (Q16539 whole entry): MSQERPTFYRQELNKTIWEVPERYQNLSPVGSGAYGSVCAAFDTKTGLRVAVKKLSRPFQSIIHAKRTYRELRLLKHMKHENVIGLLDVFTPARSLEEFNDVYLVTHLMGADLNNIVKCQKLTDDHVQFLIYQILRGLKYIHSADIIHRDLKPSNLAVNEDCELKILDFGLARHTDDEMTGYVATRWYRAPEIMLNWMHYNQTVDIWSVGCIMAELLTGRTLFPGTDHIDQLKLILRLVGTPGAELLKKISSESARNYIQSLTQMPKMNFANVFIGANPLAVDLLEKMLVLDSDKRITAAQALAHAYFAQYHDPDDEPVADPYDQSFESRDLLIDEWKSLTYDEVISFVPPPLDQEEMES
Assay [10] addresses Platelet-derived growth factor receptor beta (Homo sapiens, UniProt P09619). The class given is functional.
Assay [11] has as its target Cyclin-dependent kinase 5 (Homo sapiens, UniProt Q00535). The class given is functional.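 Further: CDK5 measured as one member of a kinase profiling panel.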
For assay [12], the target named is T1, Ubiquitin-conjugating enzyme E2 N (Homo sapiens, UniProt P61088).
T1 sequence (P61088 whole entry): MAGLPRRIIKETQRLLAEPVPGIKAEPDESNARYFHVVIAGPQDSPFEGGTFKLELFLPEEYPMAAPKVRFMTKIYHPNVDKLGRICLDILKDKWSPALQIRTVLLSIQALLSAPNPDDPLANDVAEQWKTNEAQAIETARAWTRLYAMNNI
It is filed as functional.

A short description of assay [13]: HeLa cell cytotoxicity, dose response, cytotoxicity control for MgcRacGAP inhibitor project (AID 624300). It is filed as functional.
Assay [14] can be described thus: inhibitors of SNCA 5'UTR-driven translation, confirmation, luminescence, H4 neuroglioblastoma cells, dose confirmation (AID 2454).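 Further: H4 neuroglioblastoma cells carrying an alpha-synuclein 5'UTR luciferase reporter; potency for inhibition of the luciferase signal.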 The class given is functional, cell-based.
The test system of the next assay is HeLa. As to the kind of experiment: Cytotoxicity counterscreen assay for transcriptional activators of heat shock protein 70 (Hsp70). [Related pubchem assays: 1203, 1252 ]. It is filed as functional. Conditions: Homo sapiens. (Counterscreens check selectivity or assay interference.)
A short description of assay [15]: off-target signal loss in HeLa-CEM21 co-culture – HeLa F-luc CTL cells, cherry-picked, counter-screen for HIV-1 Env fusion inhibitor project, dose response (AID 652040).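 Further: potency for signal decrease marking cytotoxic or nonspecific inhibition.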 It is filed as functional, cell-based.
The nature of assay [16]: Luminescence Cell-Based Dose Response HTS to Identify Inhibitors of 5'UTR Stem-Loop Driven Prion Protein mRNA Translation in H4 Neuroglioblastoma Cells. [Related pubchem assays: 1827 (Project Summary), 1813 (Primary HTS)]. It is filed as functional.
A further assay concerns the target T2, Hexokinase-1 (Homo sapiens, UniProt P19367).
T2 sequence (P19367 whole entry): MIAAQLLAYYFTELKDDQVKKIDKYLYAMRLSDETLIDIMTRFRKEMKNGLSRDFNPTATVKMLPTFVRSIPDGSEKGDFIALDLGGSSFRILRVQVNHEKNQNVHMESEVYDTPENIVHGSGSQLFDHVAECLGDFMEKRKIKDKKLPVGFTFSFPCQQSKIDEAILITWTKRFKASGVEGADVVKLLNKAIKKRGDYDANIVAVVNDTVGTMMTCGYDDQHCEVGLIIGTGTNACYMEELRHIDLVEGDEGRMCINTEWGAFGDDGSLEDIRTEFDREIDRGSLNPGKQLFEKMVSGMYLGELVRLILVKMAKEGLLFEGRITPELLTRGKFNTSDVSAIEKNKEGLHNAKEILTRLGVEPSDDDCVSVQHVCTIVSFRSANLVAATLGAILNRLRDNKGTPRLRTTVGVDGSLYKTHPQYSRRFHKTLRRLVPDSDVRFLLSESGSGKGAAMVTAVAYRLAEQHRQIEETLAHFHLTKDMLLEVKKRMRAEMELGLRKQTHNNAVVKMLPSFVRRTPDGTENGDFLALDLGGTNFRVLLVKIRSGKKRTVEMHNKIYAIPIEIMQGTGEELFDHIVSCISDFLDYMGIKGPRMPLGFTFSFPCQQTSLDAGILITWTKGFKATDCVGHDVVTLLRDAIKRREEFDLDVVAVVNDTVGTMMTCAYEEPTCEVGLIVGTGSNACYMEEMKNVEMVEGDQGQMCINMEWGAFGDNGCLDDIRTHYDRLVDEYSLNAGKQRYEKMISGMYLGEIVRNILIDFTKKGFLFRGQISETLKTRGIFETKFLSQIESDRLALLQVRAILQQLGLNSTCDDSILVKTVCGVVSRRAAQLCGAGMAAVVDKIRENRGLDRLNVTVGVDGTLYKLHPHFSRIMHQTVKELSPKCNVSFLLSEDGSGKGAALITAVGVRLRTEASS
The experiment in a line: hexokinase 1 activators, dose response, selectivity assay for HKDC1 activator project, biochemical (AID 504762). The class given is functional.

Assay [17] in a line: ZM109 Env clade C HIV-1 fusion inhibitors, dose response, HeLa effector, CEM target cells, luciferase, cherry-pick (AID 652058). The class given is functional, cell-based.
The target in assay [18] is T3, Serine/threonine-protein phosphatase (Candida dubliniensis (strain CD36 / CBS 7987 / NCPF 3949 / NRRLY-17841) (Yeast), UniProt B9W6M3).
T3 sequence (B9W6M3 whole entry): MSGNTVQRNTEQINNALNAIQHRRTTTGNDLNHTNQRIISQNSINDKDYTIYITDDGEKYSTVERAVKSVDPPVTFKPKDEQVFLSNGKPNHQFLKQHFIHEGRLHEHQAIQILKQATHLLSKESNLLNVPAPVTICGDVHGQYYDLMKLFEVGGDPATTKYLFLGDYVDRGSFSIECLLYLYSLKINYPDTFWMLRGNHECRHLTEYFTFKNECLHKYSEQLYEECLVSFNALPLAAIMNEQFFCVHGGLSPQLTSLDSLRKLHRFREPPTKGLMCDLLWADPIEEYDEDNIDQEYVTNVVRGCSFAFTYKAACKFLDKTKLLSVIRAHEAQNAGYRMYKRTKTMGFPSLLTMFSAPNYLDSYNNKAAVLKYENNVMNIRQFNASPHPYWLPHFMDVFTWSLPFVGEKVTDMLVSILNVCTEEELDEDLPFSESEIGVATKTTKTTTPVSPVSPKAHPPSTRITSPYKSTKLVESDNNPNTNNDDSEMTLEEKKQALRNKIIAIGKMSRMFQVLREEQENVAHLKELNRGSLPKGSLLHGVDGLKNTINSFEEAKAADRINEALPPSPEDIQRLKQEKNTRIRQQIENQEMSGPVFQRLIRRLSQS
As to the kind of experiment: calcineurin pathway inhibitors in yeast reporter, dose response, S. cerevisiae, CDRE-lacZ, luminescence, secondary (AID 2388).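 Further: yeast reporter cells carrying a calcineurin-responsive lacZ construct stimulated with calcium chloride; luminescent beta-galactosidase reporter signal in whole cells rather than isolated phosphatase activity; potency for inhibition where a drop in reporter signal means calcineurin blockade.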 The class given is functional, cell-based.

Assay [19] concerns the target T4, SUMO-activating enzyme (Homo sapiens, UniProt Q9UBT2). The experiment in a line: inhibitors of in vitro SUMOylation cascade, primary screen, biochemical, HTRF, uHTS (AID 2006). The class given is protein-complex assay. (In TR-FRET formats the signal depends on donor and acceptor labels being close together.)
The target in assay [20] is T4, SUMO-activating enzyme. The experiment in a line: SUMOylation inhibitor hit validation, confirmation, SUMOylation inhibitor project, biochemical, AlphaScreen (AID 2018). The class given is functional.

The source made the active and inactive calls.

T4 sequence (Q9UBE0 whole entry): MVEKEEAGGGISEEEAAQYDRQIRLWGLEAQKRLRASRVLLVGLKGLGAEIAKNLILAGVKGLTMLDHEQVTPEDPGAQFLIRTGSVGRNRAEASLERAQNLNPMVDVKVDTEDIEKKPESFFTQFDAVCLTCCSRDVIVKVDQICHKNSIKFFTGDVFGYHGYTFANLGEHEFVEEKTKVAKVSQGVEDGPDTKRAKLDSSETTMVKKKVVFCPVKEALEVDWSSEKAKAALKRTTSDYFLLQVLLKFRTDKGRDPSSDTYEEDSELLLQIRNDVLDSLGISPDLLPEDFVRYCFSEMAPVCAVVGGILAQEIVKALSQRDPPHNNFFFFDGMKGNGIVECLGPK
T4 sequence (Q9UBT2 whole entry): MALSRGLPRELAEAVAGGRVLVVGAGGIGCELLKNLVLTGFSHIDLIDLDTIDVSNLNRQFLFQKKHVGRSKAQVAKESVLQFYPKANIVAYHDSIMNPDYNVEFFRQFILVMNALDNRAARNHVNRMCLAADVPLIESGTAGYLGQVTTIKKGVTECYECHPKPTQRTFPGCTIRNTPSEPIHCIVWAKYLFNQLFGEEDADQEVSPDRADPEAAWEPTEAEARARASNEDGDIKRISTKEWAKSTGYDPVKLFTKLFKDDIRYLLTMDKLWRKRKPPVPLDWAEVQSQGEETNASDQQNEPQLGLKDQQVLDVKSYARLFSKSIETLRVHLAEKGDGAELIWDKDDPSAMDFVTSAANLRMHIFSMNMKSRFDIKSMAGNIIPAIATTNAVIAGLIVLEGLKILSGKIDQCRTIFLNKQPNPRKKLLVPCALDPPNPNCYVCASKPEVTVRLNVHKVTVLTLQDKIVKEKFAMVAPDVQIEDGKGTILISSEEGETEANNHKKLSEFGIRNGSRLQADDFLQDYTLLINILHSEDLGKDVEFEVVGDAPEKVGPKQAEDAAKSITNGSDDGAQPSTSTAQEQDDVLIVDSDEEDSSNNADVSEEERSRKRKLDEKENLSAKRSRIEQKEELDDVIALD
Sequence of Cell division cycle 7-related protein kinase (O00311 whole entry): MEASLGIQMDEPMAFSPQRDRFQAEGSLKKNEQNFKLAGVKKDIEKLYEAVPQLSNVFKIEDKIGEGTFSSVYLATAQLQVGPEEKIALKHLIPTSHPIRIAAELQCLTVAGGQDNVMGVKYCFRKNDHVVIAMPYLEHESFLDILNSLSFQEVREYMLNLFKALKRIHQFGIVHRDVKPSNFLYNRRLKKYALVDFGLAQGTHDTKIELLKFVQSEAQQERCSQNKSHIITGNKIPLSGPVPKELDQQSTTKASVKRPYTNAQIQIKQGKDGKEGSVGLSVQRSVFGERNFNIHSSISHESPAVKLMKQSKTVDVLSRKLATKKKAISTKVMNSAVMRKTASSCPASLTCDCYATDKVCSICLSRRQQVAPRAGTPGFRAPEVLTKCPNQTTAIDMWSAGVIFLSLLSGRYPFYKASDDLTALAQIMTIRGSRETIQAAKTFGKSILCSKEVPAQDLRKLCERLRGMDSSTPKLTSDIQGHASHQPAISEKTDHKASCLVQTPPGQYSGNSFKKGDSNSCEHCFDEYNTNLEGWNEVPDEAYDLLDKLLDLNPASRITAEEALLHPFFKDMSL
Sequence of Cyclin-dependent kinase 5 (Q00535 whole entry): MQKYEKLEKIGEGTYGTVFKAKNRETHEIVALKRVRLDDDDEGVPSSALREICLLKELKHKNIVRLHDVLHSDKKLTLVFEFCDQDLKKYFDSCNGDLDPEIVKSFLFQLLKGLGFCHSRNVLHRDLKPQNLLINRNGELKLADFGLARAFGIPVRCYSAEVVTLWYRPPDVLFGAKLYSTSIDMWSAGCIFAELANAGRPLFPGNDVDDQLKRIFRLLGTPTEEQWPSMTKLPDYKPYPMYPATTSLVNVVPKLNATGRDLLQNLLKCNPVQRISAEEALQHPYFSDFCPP
Sequence of Serine/threonine-protein kinase 17A (Q9UEE5 whole entry): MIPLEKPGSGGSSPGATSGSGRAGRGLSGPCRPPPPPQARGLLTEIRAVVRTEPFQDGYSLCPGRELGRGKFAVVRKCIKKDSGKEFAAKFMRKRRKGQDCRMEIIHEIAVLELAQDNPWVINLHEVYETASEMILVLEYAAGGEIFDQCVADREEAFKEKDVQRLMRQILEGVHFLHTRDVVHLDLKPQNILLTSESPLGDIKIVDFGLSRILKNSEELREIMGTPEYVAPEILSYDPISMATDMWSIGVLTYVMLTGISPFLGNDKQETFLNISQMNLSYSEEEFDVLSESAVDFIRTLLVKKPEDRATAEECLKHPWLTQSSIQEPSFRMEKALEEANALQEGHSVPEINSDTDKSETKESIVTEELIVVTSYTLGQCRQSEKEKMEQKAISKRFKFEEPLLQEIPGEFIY
Sequence of Maternal embryonic leucine zipper kinase (Q14680 whole entry): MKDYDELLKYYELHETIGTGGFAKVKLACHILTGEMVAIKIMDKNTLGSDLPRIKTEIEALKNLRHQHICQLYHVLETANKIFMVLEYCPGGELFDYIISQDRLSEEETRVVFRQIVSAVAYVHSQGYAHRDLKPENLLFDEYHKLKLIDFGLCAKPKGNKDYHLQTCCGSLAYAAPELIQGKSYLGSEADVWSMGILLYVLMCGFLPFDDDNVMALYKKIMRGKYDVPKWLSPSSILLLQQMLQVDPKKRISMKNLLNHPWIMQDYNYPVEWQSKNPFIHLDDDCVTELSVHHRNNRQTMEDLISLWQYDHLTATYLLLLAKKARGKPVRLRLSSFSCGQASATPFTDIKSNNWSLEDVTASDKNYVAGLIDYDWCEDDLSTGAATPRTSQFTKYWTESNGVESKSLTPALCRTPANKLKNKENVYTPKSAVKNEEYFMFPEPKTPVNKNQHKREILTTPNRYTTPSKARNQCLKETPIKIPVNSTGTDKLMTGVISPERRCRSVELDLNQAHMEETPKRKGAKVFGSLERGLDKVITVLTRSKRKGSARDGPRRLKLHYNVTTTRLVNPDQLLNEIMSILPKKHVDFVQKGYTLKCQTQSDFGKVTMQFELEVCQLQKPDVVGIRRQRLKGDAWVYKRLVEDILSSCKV
Sequence of Platelet-derived growth factor receptor beta (P09619 whole entry): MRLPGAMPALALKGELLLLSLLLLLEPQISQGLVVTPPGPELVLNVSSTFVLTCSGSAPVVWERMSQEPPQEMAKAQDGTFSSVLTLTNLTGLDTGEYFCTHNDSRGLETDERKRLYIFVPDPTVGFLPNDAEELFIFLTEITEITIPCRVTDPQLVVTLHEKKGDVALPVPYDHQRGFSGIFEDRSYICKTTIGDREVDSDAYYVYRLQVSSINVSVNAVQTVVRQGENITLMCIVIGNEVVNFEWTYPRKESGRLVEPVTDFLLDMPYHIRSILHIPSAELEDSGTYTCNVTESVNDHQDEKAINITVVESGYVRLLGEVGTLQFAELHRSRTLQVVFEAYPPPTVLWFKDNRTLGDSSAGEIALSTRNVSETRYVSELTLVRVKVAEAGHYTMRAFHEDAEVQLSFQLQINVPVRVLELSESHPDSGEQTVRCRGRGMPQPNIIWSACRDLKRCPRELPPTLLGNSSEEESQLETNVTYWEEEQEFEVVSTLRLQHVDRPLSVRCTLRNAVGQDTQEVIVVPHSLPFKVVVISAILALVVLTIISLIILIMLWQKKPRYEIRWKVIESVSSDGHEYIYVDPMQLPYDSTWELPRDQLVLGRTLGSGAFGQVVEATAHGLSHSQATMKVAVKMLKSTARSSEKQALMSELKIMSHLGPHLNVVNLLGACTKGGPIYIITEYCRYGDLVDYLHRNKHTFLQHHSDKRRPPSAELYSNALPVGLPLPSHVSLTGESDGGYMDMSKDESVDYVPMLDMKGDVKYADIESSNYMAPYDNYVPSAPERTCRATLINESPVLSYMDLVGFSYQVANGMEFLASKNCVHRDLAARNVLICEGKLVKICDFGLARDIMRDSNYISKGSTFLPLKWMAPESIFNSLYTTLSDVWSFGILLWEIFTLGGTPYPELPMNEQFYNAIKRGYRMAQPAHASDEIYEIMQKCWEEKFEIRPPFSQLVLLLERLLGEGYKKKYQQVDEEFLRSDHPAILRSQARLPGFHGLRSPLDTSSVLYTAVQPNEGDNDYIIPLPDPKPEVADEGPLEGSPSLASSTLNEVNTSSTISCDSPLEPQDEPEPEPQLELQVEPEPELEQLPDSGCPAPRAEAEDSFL

Turning to `O=C(N/N=C/c1c(O)ccc2ccccc12)c1[nH]ncc1Br`, the EC50 with BJ [1] is 10.5 µM (active); with BJ [2], 24.6 µM (active).

As for `O=C(Nc1cc(-c2c[nH]c3ncccc23)cc(Cl)n1)c1ccccc1`, the Ki was 0.00158 µM (active) in assay [3]; > 1.58 µM (inactive) in [4]; 0.0316 µM (active) in assay [5]; > 3.16 µM (inactive) in [6]; 1.58 µM (active) in assay [7].

Consider `Nc1c(-c2ccc(NC(=O)Nc3cccc(C(F)(F)F)c3)cc2)cnc2c(-c3ccc4c(c3)OCO4)cnn12`, for which the Ki was 0.2 µM (active) in [8], > 3.98 µM (inactive) in assay [9], 0.00794 µM (active) in [10] and > 3.16 µM (inactive) in assay [11].

For `CNC[C@H](Cc1ccccc1)NC[C@@H](Cc1cccc2ccccc12)NCCc1ccc(C)cc1`, in assay [12], the IC50 was 11.5 µM (active).

Regarding `CCN1C(=Cc2sc3ccccc3[n+]2C)C=Cc2cccc(C)c21`, the results for the CC50 (in assay [13]; in the assay on HeLa) were 13.8 µM (active) and 1.87 µM (active), respectively. In addition, the EC50 in assay [14] was > 12 µM (not active); in assay [16], 6.43 µM (active); on Hexokinase-1, > 80 µM (inactive); in assay [18] it was > 180 µM (inactive). For the same molecule, the results for the AC50 in assay [15] and in assay [17] were 9.01 µM (active) and 7.58 µM (active), respectively.

In the case of `O=C(Cc1ccccc1Cl)NC1(O)C(=O)c2ccccc2C1=O`, the IC50 on SUMO-activating enzyme [19] is 26 µM (active); on SUMO-activating enzyme [20], 5.64 µM (active).

The term EC50 denotes the concentration giving half of the maximal effect. As usually defined, the Ki is a dissociation constant, usually derived from enzyme kinetics or from competition with a known ligand. The term IC50 denotes the concentration that inhibits the measured activity by half. One may read the CC50 as the concentration giving 50% cytotoxicity. By AC50 is commonly meant the midpoint of the concentration-response curve, whichever way the signal moves.
